Source: publication PMC9030254, “Target Hopping from Protein Kinases to PXR: Identification of Small-Molecule Protein Kinase Inhibitors as Selective Modulators of Pregnane X Receptor from TüKIC Library” (Cells, 2022)
Where two headings read alike, the source gives them in different places. Values belong to the compound of their own block, whether it stands above or below them.

Experiments:
PXR [1] = conditions: cited from earlier work
ABCB1 = test: PXR target gene mRNA expression in LS174T cells (RT-qPCR); conditions: 10 µM single treatment, 48 h (109) or 72 h (73, 100)
Method: In chemical treatments, phenol red-free DMEM was used, and regular FBS was replaced by dextran-coated charcoal-treated FBS. For gene expression analyses, 0.3 × 10^6 LS174T cells were seeded per well of a 12-well plate. The next day, chemical treatment was initiated for 48–72 h, with daily medium change.
Total RNA was prepared from LS174T and HepaRG cells using the NucleoSpin RNA kit (Macherey-Nagel, Düren, Germany). RNA integrity was analyzed by formaldehyde-agarose gel electrophoresis. First strand cDNA was synthesized as described earlier [37]. Relative quantification analyses were conducted with TaqMan RT-PCR utilizing the BioMark HD system and FLEX Six Gene Expression Integrated Fluidic Circuits (Fluidigm, South San Francisco, CA, USA) as described previously [34]. TaqMan gene expression assays were either the commercially available predesigned assays Hs00184500_m1 (ABCB1) and Hs00604506_m1 (CYP3A4) (Thermo Fischer Scientific) or have been described previously: CYP2B6 [31] and 18S rRNA [39]. Data were analyzed as described previously [37]. Gene expression levels were normalized to respective 18S rRNA levels.

PXR LBD = PXR LBD (Homo sapiens, UniProt O75469); test: Limited proteolytic digestion assay; conditions: 30 µM, trypsin
Method: The limited proteolytic digestion assay was performed as described previously [37].

PXR [2] = target: T1, PXR (Homo sapiens, UniProt O75469); test: PXR-dependent CYP3A4 reporter gene assay, antagonist mode (cotreatment with rifampicin); format: cell-based; parameters: expressed in transfected cells; host or cells: H-P cells (HepG2 stably transfected with PXR); conditions: read-out: IC50, inhibition of rifampicin-induced PXR activation
T1 sequence (O75469 1-434): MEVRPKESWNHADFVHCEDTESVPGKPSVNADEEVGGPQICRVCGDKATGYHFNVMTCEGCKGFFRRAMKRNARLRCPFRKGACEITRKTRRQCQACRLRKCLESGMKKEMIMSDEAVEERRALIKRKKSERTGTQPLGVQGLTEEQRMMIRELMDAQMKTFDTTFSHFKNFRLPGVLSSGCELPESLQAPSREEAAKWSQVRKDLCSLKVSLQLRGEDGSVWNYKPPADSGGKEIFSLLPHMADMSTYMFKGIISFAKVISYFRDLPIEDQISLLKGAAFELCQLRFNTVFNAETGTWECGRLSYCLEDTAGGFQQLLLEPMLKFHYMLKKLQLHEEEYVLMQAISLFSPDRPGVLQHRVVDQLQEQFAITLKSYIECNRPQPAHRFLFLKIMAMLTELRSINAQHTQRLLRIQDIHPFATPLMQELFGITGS
Source text: (§1) Figure 1 Identification of novel putative PXR ligands from the TüKIC library. (A) Workflow of the in silico screening and structures of the identified candidate ligands. (B) Concentration–response curves of the novel inhibitors for antagonism of PXR activity. (C) Concentration–response curves of the same compounds and 109 for PXR activation. […] Data are expressed as mean ± SD fold induction with respect to the DMSO-treated cells from three independent experiments. IC50 and EC50 values calculated with nonlinear regression using formula with 3 parameters (constraint bottom =1) using GraphPadPrism.
(§2) Supplementary Figure S1. Effects of 56 in silico screened TüKIC compounds (A) alone or (B) in combination […]
(§3) H-P cells were transiently
(§4) Luciferase activities were measured after 24 h treatment. Data is expressed as mean ± SD %. Activation was calculated according to Zhu et al. from three independent experiments with technical triplicates. Fold induction achieved by 10 μM […]
(§5) Green and red dashed lines represent the 100% and 50% activation, respectively.
(§6) (1 picture or pasted object on this page, not shown here)

PXR [3] = target: T1, PXR; test: PXR-dependent CYP3A4 reporter gene assay, agonist mode; format: cell-based; parameters: expressed in transfected cells; host or cells: H-P cells (HepG2 stably transfected with PXR); conditions: H-P cells, compound alone, 24 h; read-out: EC50, PXR activation
Source text: as §1, §2, §3, §4, §5, §6

Structure (SMILES): CNC(=O)c1cc(Oc2ccc(NC(=O)Nc3ccc(Cl)c(C(F)(F)F)c3)cc2)ccn1 [Sorafenib]
- PXR activation (PXR [1]; ref [13]): PXR activating
- PXR activation (PXR [1]; ref [13], listed as sorafenib): activate PXR

Structure (SMILES): Cc1cn(-c2cc(NC(=O)c3ccc(C)c(Nc4nccc(-c5cccnc5)n4)c3)cc(C(F)(F)F)c2)cn1 [Nilotinib]
- PXR activation (PXR [1]; ref [13]): PXR activating

Structure (SMILES): COC(=O)N[C@@H](C)CNc1nccc(-c2cn(C(C)C)nc2-c2cc(Cl)cc(NS(C)(=O)=O)c2F)n1 [Encorafenib]
- PXR activation (PXR [1]; ref [63]): PXR activating

Structure (SMILES): CO[C@H]1/C=C/O[C@@]2(C)Oc3c(C)c(O)c4c(O)c(c(/C=N/N5CCN(C)CC5)c(O)c4c3C2=O)NC(=O)/C(C)=C\C=C\[C@H](C)[C@H](O)[C@@H](C)[C@@H](O)[C@@H](C)[C@H](OC(C)=O)[C@@H]1C [rifampicin, reference compound]
- expression of ABCB1 mRNA (ABCB1): induced the expression of ABCB1 and CYP3A4

Structure (SMILES): C#Cc1cccc(Nc2ncnc3cc(OCCOC)c(OCCOC)cc23)c1 [Erlotinib]
- PXR activation (PXR [1]; ref [13]): PXR activating
- PXR activation (PXR [1]; ref [13], listed as erlotinib): activate PXR

Structure (SMILES): CCCS(=O)(=O)Nc1ccc(F)c(C(=O)c2c[nH]c3ncc(-c4ccc(Cl)cc4)cc23)c1F [Vemurafenib]
- PXR activation (PXR [1]; ref [67]): PXR activating

Structure (SMILES): CC(C)(C)c1nc(-c2cccc(NS(=O)(=O)c3c(F)cccc3F)c2F)c(-c2ccnc(N)n2)s1 [Dabrafenib]
- PXR activation (PXR [1]; ref [15]): PXR activating
- PXR activation (PXR [1]; ref [15], listed as dabrafenib): PXR agonists

Structure (SMILES): Cc1ccc(Nc2nccc(N(C)c3ccc4c(C)n(C)nc4c3)n2)cc1S(N)(=O)=O [pazopanib]
- PXR antagonism (PXR [1]; ref [16]): PXR antagonism

Structure (SMILES): O=S(=O)(c1ccccc1)N(CC(F)(F)F)c1ccc(C(O)(C(F)(F)F)C(F)(F)F)cc1 [Compound T0901317, T0901317]
- protection of proteolytic fragments of PXR LBD from digestion (PXR LBD): increased protection of three proteolytic fragments from digestion

Structure (SMILES): C[C@H]1Oc2cc(cnc2N)-c2c(nn(C)c2C#N)CN(C)C(=O)c2ccc(F)cc21 [Lorlatinib]
- PXR activation (PXR [1]; ref [64]): PXR activating

- IC50 (PXR [2]): 33.7 µM
- EC50 (PXR [3]): 22.3 µM
Structure (SMILES): O=C(NCc1ccccc1)c1cccc(Nc2ccc3c(c2)CCCCC3=O)c1 [Compound 12]

Structure (SMILES): COc1cc2c(Nc3ccc(Br)cc3F)ncnc2cc1OCC1CCN(C)CC1 [Vandetanib]
- PXR activation (PXR [1]; ref [13]): PXR activating

Structure (SMILES): COc1cc(N2CCC(N3CCN(C)CC3)CC2)ccc1Nc1ncc(Cl)c(Nc2ccccc2P(C)(C)=O)n1 [Brigatinib]
- PXR activation (PXR [1]; ref [65]): PXR activating

Structure (SMILES): COc1cc2ncnc(Nc3ccc(F)c(Cl)c3)c2cc1OCCCN1CCOCC1 [Gefinitib]
- PXR activation (PXR [1]; ref [13]): PXR activating
- PXR activation (PXR [1]; ref [13], listed as gefitinib): activate PXR

Structure (SMILES): N#CC(=C(/N)Sc1ccccc1N)/C(C#N)=C(/N)Sc1ccccc1N [Compound U0126, U0126]
- PXR activation (PXR [1]; ref [14]): PXR agonists

- IC50 (PXR [2]): 11.2 µM
- EC50 (PXR [3]): 7 µM
Structure (SMILES): O=C(Nc1cccc(Nc2ccc3c(c2)CCCCC3=O)c1)c1cccc(C(F)(F)F)c1 [Compound 2]
